This passage reports EC50 and AC50 results from ChEMBL document CHEMBL1201862, “PubChem BioAssay data set” (2004).

Data set [1] is described as follows: Trypanosoma cruzi growth suppression in host cells – NIH3T3 host cells, beta-gal luminescence, confirmation (AID 2044).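 Further: intracellular parasites grown in NIH/3T3 mouse fibroblasts as host cells; luminescent beta-galactosidase reporter signal from transgenic T. cruzi replicating inside host cells; inhibitors lower the luminescence signal.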 The format is functional, cell-based.
The nature of data set [2]: NIH3T3 cell viability loss – ATP luminescence, mouse fibroblasts, counter-screen, dose response (AID 2010).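 Further: cells exposed to compound for about 90 hours before reading.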 The format is functional, cell-based. In general terms: The purpose of a counterscreen is to sort out artefacts and off-target activity.
The next data set concerns the target T1, Streptokinase A (Streptococcus pyogenes serotype M1, UniProt P10520).
T1 sequence (P10520 whole entry): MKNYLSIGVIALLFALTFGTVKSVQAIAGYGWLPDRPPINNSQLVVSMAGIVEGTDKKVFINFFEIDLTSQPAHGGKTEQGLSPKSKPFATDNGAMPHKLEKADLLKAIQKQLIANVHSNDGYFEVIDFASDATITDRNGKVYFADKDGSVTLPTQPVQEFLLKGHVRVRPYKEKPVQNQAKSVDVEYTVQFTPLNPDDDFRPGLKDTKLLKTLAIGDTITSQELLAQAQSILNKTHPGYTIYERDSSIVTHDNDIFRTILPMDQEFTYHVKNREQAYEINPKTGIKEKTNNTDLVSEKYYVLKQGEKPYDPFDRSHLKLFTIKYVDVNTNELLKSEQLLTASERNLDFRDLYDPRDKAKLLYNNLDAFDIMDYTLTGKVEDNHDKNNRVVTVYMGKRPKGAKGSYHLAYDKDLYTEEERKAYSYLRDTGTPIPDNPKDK
Kind of data set: viability-normalized secreted streptokinase activity reduction – plasminogen activation absorbance, OD405, dose response (AID 1914).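 Further: secreted streptokinase activity via plasminogen activation per viability signal from cell pellet.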 The format is functional, Streptococcus pyogenes M1 GAS.

Data set [3] concerns Streptococcus sp. 'group A'. Briefly: Streptococcus pyogenes SK(-)GAS viability under kanamycin – luminescence, BacTiterGlo, confirmation, counter-screen for streptokinase expression inhibitor project, dose response (AID 1900). The format is functional, organism-based.
The subject of a further data set is Streptococcus. Kind of data set: GAS UMAA2166 growth inhibition – luminescence, BacTiterGlo, counter-screen for streptokinase expression inhibitor project, dose response (AID 1915).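 Further: potency for reduction of bacterial viability or growth.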 The format is functional, organism-based.
The target in the next data set is Cytochrome P450 2C9 (Homo sapiens, UniProt P11712).
A further data set has as its target T2, Cytochrome P450 1A2 (Homo sapiens, UniProt P05177).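 Further: PubChem cytochrome P450 panel assay, CYP1A2 panel member.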
T2 sequence (P05177 whole entry): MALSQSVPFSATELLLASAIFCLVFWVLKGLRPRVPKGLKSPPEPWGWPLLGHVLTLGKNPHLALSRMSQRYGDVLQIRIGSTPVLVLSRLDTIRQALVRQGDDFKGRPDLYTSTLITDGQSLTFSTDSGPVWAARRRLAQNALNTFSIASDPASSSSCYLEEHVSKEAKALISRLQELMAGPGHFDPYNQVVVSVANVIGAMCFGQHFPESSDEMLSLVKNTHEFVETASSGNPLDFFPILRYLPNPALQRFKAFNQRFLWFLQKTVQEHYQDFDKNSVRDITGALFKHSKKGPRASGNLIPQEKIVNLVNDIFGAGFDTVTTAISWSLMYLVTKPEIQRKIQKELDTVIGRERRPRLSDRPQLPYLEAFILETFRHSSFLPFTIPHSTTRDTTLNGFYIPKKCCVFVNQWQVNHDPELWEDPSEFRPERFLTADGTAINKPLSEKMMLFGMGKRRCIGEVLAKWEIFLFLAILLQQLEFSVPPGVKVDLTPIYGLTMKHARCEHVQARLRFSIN

In the next data set the target is Cytochrome P450 2C19 (Homo sapiens, UniProt P33261). Kind of data set: Cytochrome panel assay with activity outcomes. Panel member name: p450-cyp2c19 Compounds with AC50 equal or less than 10 uM are considered active. It is filed as functional.
A short description of data set [4]: luciferase reporter signal suppression in cells – H4 neuroglioma cells, luminescence, dose response (AID 1990). It is filed as functional, cell-based.
Data set [5] in a line: alpha-synuclein stem-loop luciferase translation blockers – H4 neuroglioma cells, luminescence, confirmation (AID 1988). The format is functional, cell-based.

Calls of active or inactive are those of the source. Some results are limits rather than exact numbers.

Cytochrome P450 2C19, sequence (P33261 whole entry): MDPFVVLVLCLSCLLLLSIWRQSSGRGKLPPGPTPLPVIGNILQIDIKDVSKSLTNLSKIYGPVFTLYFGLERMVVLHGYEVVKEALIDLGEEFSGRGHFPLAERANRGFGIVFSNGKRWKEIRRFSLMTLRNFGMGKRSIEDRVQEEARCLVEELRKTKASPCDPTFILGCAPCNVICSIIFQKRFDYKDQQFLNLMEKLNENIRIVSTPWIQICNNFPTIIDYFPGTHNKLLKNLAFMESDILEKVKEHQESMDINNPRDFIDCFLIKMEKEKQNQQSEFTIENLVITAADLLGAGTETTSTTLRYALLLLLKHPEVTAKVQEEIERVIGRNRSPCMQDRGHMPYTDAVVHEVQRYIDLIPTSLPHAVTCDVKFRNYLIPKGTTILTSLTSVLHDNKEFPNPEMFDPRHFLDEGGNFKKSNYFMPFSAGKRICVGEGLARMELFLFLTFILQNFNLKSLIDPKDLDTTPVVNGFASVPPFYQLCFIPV
Cytochrome P450 2C9, sequence (P11712 whole entry): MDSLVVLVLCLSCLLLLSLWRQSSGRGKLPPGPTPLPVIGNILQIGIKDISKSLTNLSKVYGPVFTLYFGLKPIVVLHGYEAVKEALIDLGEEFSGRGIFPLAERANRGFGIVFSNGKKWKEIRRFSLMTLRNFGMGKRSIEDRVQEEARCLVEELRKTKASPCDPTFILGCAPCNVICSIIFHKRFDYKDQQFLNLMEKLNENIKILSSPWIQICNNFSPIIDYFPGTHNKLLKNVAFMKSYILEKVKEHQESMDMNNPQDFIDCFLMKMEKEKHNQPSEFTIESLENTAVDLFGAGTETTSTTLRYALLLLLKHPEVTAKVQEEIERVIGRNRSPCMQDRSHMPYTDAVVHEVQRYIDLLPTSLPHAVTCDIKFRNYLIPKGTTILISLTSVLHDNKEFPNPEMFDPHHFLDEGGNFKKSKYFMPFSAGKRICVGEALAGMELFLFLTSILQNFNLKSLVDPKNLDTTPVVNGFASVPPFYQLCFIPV

As usually defined, the EC50 is the concentration at which the effect is half-maximal. Consider `COc1ccc(C2CC(c3ccccc3)=NN2C(=O)COC(=O)c2cccc(S(=O)(=O)N3CCOCC3)c2)cc1` (stereo not drawn), for which the half-maximal effective concentration (EC50) in data set [1] was 3.37 µM (active); in [2], > 30 µM (not active).
`CC(C)C[C@H](NC(=O)c1[nH]cnc1C(=O)N1CCc2ccccc2C1)C(=O)OCc1ccccc1`: the EC50 at Streptokinase A is > 150 µM (not active); in data set [3], 9.76 µM (active); in the data set on Streptococcus, > 150 µM (not active).
What is called AC50 is the midpoint of the concentration-response curve, whichever way the signal moves. On to `CC(=O)CSc1nnc(Cc2ccc([N+](=O)[O-])cc2)o1`, for which the concentration at half-maximal activity (AC50) at Cytochrome P450 2C9 is 35.5 µM (inconclusive); on Cytochrome P450 1A2, 15.8 µM (inconclusive).
With `CCC(C)(C)n1nnnc1C(c1cccc(C#N)c1)N1CCN(c2cc(C)ccc2C)CC1` (stereo not drawn), the EC50 in data set [1] was 1.73 µM (active); in data set [2], 32.6 µM (active).
Regarding `CN(C)C(=O)c1ccc(-c2ccc3ncnc(NC4CCNCC4)c3c2)cc1`, the half-maximal activity concentration (AC50) at Cytochrome P450 1A2 is 20 µM (inconclusive).
In the case of `CN1CCN(c2ncc3nc(-c4ccccc4)c(=O)n(Cc4ccc(F)cc4)c3n2)CC1`, on Cytochrome P450 2C19 (read-out: AC50), the AC50 was 39.8 µM (inconclusive).
As for `CN(C)CCN(C(=O)c1ccc(S(=O)(=O)N2CCCC2)cc1)c1nc2ccc(Br)cc2s1`, the values for the half-maximal effective concentration (EC50) in [1] and in [2] were 0.122 µM (active) and > 30 µM (not active), respectively.
In the case of `CCOC(=O)CSc1nnc(CNC(=O)c2ccc(OC)cc2)n1C1CCCCC1`, the concentration at half-maximal activity (AC50) on Cytochrome P450 1A2 is 5.01 µM (inconclusive); at Cytochrome P450 2C19 (read-out: AC50) it was 10 µM (inconclusive).
For `CC(=O)N(CCC(Cc1ccccc1)c1ccc2c(c1)OCO2)Cc1ccc(Cl)cc1` (stereo not drawn), the EC50 is 58.5 µM (active) on Streptokinase A, 7.09 µM (active) in data set [3] and 12.4 µM (active) with Streptococcus.
As for `Cc1ccccc1N=C(S)N1CCCC(c2nc3ccccc3[nH]2)C1` (stereo not drawn), the EC50 in [1] was 1.28 µM (active); in data set [2] it was > 60 µM (not active).
On to `Cn1cc(-c2nc3cnc(Oc4ccccc4)nc3n(Cc3cccs3)c2=O)c2ccccc21`, for which, at Cytochrome P450 1A2, the half-maximal activity concentration (AC50) was 3.16 µM (inconclusive).
`Cc1ccc(-c2cc(C(=O)N3CCN(c4ccccc4O)CC3)c3ccccc3n2)cc1`: the EC50 on Streptokinase A was > 150 µM (not active); in data set [3] it was 5.39 µM (active); with Streptococcus, 26.4 µM (active).
For the compound `OC[C@@H](O)[C@@H](O)[C@@H](O)[C@@H](O)c1nc2cc(Cl)ccc2[nH]1`, the AC50 at Cytochrome P450 1A2 is 6.31 µM (inconclusive).
As to `CN/C(=N/c1cc(Cl)ccc1Cl)SC1CC(=O)N(c2ccc(C(=O)OC)cc2)C1=O` (stereo not drawn), at Streptokinase A, the concentration giving a half-maximal response (EC50) was > 50 µM (not active).
`Cc1cccc(C(=O)NCC(=O)N2CCOCC2)c1`: the EC50 (on Streptokinase A; in [3]; in the data set on Streptococcus) was > 150 µM (not active) throughout.
In the case of `O=C(COc1ncnc2cc([N+](=O)[O-])ccc12)NC(=O)NC1CCCCC1`, the EC50 in [1] is 0.122 µM (active); in data set [2], > 60 µM (not active).
`COc1ccc(NC(=O)c2cc(-c3cc(C)cc(C)c3O)[nH]n2)cc1Cl`: the values for the concentration for a half-maximal effect (EC50) (in data set [3]; with Streptococcus) were 2.41 µM (active) and 3.07 µM (active), respectively.
Regarding `CCC(CC)NC(=O)c1oc2ccccc2c1COc1ccccc1`, the EC50 on Streptokinase A is 10.6 µM (active); in [3], 9.43 µM (active); in the data set on Streptococcus, 17 µM (active).
Take `O=C(c1cccc(F)c1)N1CCC2(CCCN(c3ccccc3)C2)CC1`: the AC50 at Cytochrome P450 1A2 is 15.8 µM (inconclusive).
Regarding `O=C(/C=C(\c1ccc(Cl)cc1)n1cncn1)c1ccc(Cl)cc1`, the EC50 was 0.475 µM (active) in data set [1] and > 60 µM (not active) in data set [2].
`Cc1ccccc1OCC(O)Cn1c(NCc2ccccc2)nc2c1c(=O)[nH]c(=O)n2C` (stereo not drawn): the concentration at half-maximal activity (AC50) on Cytochrome P450 2C9 was 5.62 µM (inconclusive).
`O=C(CC(C(=O)N1CCc2ccccc21)n1ccnc1)N1CCc2ccccc2C1` (stereo not drawn): the concentration giving a half-maximal response (EC50) in data set [1] is 0.276 µM (active); in [2] it was 11.5 µM (active).
As to `COc1ccc(C2=NCC(CSc3nnc(-c4ccc5c(c4)OCO5)o3)S2)cc1` (stereo not drawn), the results for the EC50 in data set [1] and in data set [2] were 0.62 µM (active) and > 60 µM (not active), respectively.
In the case of `Cc1ccc(Cn2cccc(NC(=O)NC3CCCCC3)c2=O)cc1`, the results for the AC50 on Cytochrome P450 2C9 and on Cytochrome P450 1A2 were 2.51 µM (inconclusive) and 15.8 µM (inconclusive), respectively.
In the case of `CCn1ncc(C(=O)Nc2cc(C)on2)c1C`, the half-maximal activity concentration (AC50) at Cytochrome P450 1A2 and on Cytochrome P450 2C19 (read-out: AC50) was 15.8 µM (inconclusive) throughout.
With `COC(=O)[C@@]1(Cc2ccc(F)cc2)[C@H]2c3cc(C(=O)N4CCCC4)n(CCO)c3C[C@H]2CN1C(=O)c1ccccc1`, the AC50 at Cytochrome P450 1A2 was 25.1 µM (inconclusive); at Cytochrome P450 2C19 (read-out: AC50) it was 39.8 µM (inconclusive).
With `CC1CC(C)(C)Nc2ccc(N=O)cc21` (stereo not drawn), the EC50 in [1] was 2.29 µM (active); in data set [2] it was 3.13 µM (active).
The corresponding values for `COc1ccc2[nH]c(C(=O)N3CCCN(Cc4ccc(F)cc4)CC3)cc2c1` are 0.23 µM (active) and > 60 µM (not active).
`Cc1ccc(-c2cc3nc(-c4ccc(Br)cc4)cc(N)n3n2)cc1`: the EC50 is 1.59 µM (active) in [3] and 1.06 µM (active) with Streptococcus.
As for `Nc1ccccc1Nc1cc(-c2cccc(Cl)c2)nn1-c1ccccc1`, the figures for the EC50 in data set [1] and in [2] were 4.26 µM (active) and > 60 µM (inconclusive), respectively.
As to `CS(=O)(=O)Nc1cccc(-c2nc(NCc3cccs3)c3ccccc3n2)c1`, the AC50 at Cytochrome P450 2C9 was 1.26 µM (inconclusive).
With `O=c1c(-c2cc(F)cc(F)c2)nc2cnc(Oc3ccccc3)nc2n1C1CC1`, the half-maximal activity concentration (AC50) on Cytochrome P450 2C9 was 10 µM (inconclusive).
In the case of `COC(=O)[C@@H]1[C@@H](O)[C@]2(O)c3ccccc3O[C@]2(c2ccccc2)[C@H]1c1ccccc1`, the half-maximal activity concentration (AC50) on Cytochrome P450 2C9 was 0.0794 µM (inconclusive); on Cytochrome P450 2C19 (read-out: AC50), 0.316 µM (inconclusive).
Consider `CCn1c(SCc2ccc(C)cc2)nnc1-c1nn(-c2ccccc2)ccc1=O`, for which, on Cytochrome P450 2C19, the AC50 entry is on record as “inconclusive”.
Take `O=c1c(-c2cc(F)cc(F)c2)nc2cnc(N3CCOCC3)nc2n1CCc1ccccc1`: on Cytochrome P450 1A2, the AC50 is 2.51 µM (inconclusive).
On to `Cc1ccc2cc3c(N)c(C(=O)N4CC(=O)Nc5ccccc54)sc3nc2c1`, for which the EC50 in data set [4] and in data set [5] was < 0.1 µM (active) each time.
As to `Cc1nc(N2CCCCC2)c2c(C)c(C(=O)Nc3cccc(C(F)(F)F)c3)sc2n1`, the EC50 in data set [1] is 1.54 µM (active); in [2] it was > 60 µM (not active).
With `Cc1ccc(OC(=O)N2CCOCC2)cc1`, the AC50 at Cytochrome P450 2C9 is 39.8 µM (inconclusive); at Cytochrome P450 1A2, 17.8 µM (inconclusive); on Cytochrome P450 2C19 (read-out: AC50), 28.2 µM (inconclusive).
As to `COc1cc(/C=C\c2ccc(OC)cc2OC)cc(OC)c1`, the half-maximal activity concentration (AC50) result at Cytochrome P450 2C19 is “inconclusive”.
Take `Cc1ccc(CONC(=O)/N=C/N(C)C)cc1`: at Cytochrome P450 1A2, the AC50 was 28.2 µM (inconclusive).
